# Reference: patent US8680052B1, “Methods of treating, reducing the incidence of, and/or preventing ischemic events” (The Medicines Company, priority 2013, dated 2014)
# Read-outs that look alike come from different tables or passages of the source.
# Tested on: patients with acute coronary syndromes undergoing PCI
# Details: for IDR / MI / Mortality/MI/IDR / Mortality/Q-wave MI/IDR / Mortality/Q-wave MI/Stent thrombosis / Q-wave MI / Stent thrombosis / All-cause mortality: 30 days; for Angiographic complications (site reported): Abrupt vessel closure / Angiographic complications (site reported): Acute stent thrombosis / Angiographic complications (site reported): Need for urgent CABG / Angiographic complications (site reported): New thrombus or suspected thrombus / Angiographic complications (site reported): Threatened abrupt closure / Angiographic complications (site reported): Unsuccessful procedure: index PCI
structure (smiles),measurement,setting,value
"COC(=O)[C@H](c1ccccc1Cl)N1CCc2sccc2C1 [Clopidogrel, clopidogrel, reference compound]",IDR,ITT With STEMI,15 (3.0) no. (%)
same,MI,ITT With STEMI,17 (3.4) no. (%)
same,Mortality/MI/IDR,ITT With STEMI,41 (8.2) no. (%)
same,Mortality/Q-wave MI/IDR,ITT With STEMI,31 (6.2) no. (%)
same,Mortality/Q-wave MI/Stent thrombosis,ITT With STEMI,26 (5.2) no. (%)
same,Q-wave MI,ITT With STEMI,0 (0.0) no. (%)
same,Stent thrombosis,ITT With STEMI,10 (2.0) no. (%)
same,All-cause mortality,ITT Without STEMI,31 (0.8) no. (%)
same,IDR,ITT Without STEMI,54 (1.4) no. (%)
same,MI,ITT Without STEMI,276 (7.1) no. (%)
same,Mortality/MI/IDR,ITT Without STEMI,332 (8.6) no. (%)
same,Mortality/Q-wave MI/IDR,ITT Without STEMI,88 (2.3) no. (%)
same,Mortality/Q-wave MI/Stent thrombosis,ITT Without STEMI,56 (1.4) no. (%)
same,Q-wave MI,ITT Without STEMI,15 (0.4) no. (%)
same,Stent thrombosis,ITT Without STEMI,20 (0.5) no. (%)
same,All-cause mortality,MITT,38 (0.9) no. (%)
same,IDR,MITT,66 (1.5) no. (%)
same,MI,MITT,292 (6.8) no. (%)
same,Mortality/MI/IDR,MITT,360 (8.4) no. (%)
same,Mortality/Q-wave MI/IDR,MITT,107 (2.5) no. (%)
same,Mortality/Q-wave MI/Stent thrombosis,MITT,73 (1.7) no. (%)
same,Q-wave MI,MITT,15 (0.4) no. (%)
same,Stent thrombosis,MITT,30 (0.7) no. (%)
same,All-cause mortality,MITT With STEMI,11 (2.5) no. (%)
same,IDR,MITT With STEMI,14 (3.2) no. (%)
same,MI,MITT With STEMI,16 (3.6) no. (%)
same,Mortality/MI/IDR,MITT With STEMI,34 (7.7) no. (%)
same,Mortality/Q-wave MI/IDR,MITT With STEMI,25 (5.6) no. (%)
same,Mortality/Q-wave MI/Stent thrombosis,MITT With STEMI,21 (4.7) no. (%)
same,Q-wave MI,MITT With STEMI,0 (0.0) no. (%)
same,Stent thrombosis,MITT With STEMI,10 (2.3) no. (%)
same,All-cause mortality,MITT Without STEMI,27 (0.7) no. (%)
same,IDR,MITT Without STEMI,52 (1.4) no. (%)
same,MI,MITT Without STEMI,276 (7.2) no. (%)
same,Mortality/MI/IDR,MITT Without STEMI,326 (8.5) no. (%)
same,Mortality/Q-wave MI/IDR,MITT Without STEMI,82 (2.1) no. (%)
same,Mortality/Q-wave MI/Stent thrombosis,MITT Without STEMI,52 (1.4) no. (%)
same,Q-wave MI,MITT Without STEMI,15 (0.4) no. (%)
same,Stent thrombosis,MITT Without STEMI,20 (0.5) no. (%)
same,All-cause mortality,Safety population,41 (0.9) no. (%)
same,IDR,Safety population,67 (1.6) no. (%)
same,MI,Safety population,293 (6.8) no. (%)
same,Mortality/MI/IDR,Safety population,365 (8.5) no. (%)
same,Mortality/Q-wave MI/IDR,Safety population,111 (2.6) no. (%)
same,Mortality/Q-wave MI/Stent thrombosis,Safety population,76 (1.8) no. (%)
same,Q-wave MI,Safety population,15 (0.3) no. (%)
same,Stent thrombosis,Safety population,30 (0.7) no. (%)
same,Angiographic complications (site reported): Abrupt vessel closure,ITT,22 (0.5)
same,Angiographic complications (site reported): Acute stent thrombosis,ITT,5 (0.1)
same,Angiographic complications (site reported): Need for urgent CABG,ITT,7 (0.2)
same,Angiographic complications (site reported): New thrombus or suspected thrombus,ITT,23 (0.5)
same,Angiographic complications (site reported): Threatened abrupt closure,ITT,12 (0.3)
same,Angiographic complications (site reported): Unsuccessful procedure,ITT,103 (2.4)
same,Angiographic complications (site reported): Abrupt vessel closure,ITT With STEMI,3 (0.7)
same,Angiographic complications (site reported): Acute stent thrombosis,ITT With STEMI,0 (0.0)
same,Angiographic complications (site reported): Need for urgent CABG,ITT With STEMI,0 (0.0)
same,Angiographic complications (site reported): New thrombus or suspected thrombus,ITT With STEMI,7 (1.5)
same,Angiographic complications (site reported): Threatened abrupt closure,ITT With STEMI,2 (0.4)
same,Angiographic complications (site reported): Unsuccessful procedure,ITT With STEMI,11 (2.4)
same,Angiographic complications (site reported): Abrupt vessel closure,ITT Without STEMI,19 (0.5)
same,Angiographic complications (site reported): Acute stent thrombosis,ITT Without STEMI,5 (0.1)
same,Angiographic complications (site reported): Need for urgent CABG,ITT Without STEMI,7 (0.2)
same,Angiographic complications (site reported): New thrombus or suspected thrombus,ITT Without STEMI,16 (0.4)
same,Angiographic complications (site reported): Threatened abrupt closure,ITT Without STEMI,10 (0.3)
same,Angiographic complications (site reported): Unsuccessful procedure,ITT Without STEMI,92 (2.4)
same,Angiographic complications (site reported): Abrupt vessel closure,MITT,22 (0.5)
same,Angiographic complications (site reported): Acute stent thrombosis,MITT,5 (0.1)
same,Angiographic complications (site reported): Need for urgent CABG,MITT,6 (0.1)
same,Angiographic complications (site reported): New thrombus or suspected thrombus,MITT,22 (0.5)
same,Angiographic complications (site reported): Threatened abrupt closure,MITT,12 (0.3)
same,Angiographic complications (site reported): Unsuccessful procedure,MITT,103 (2.4)
same,Angiographic complications (site reported): Abrupt vessel closure,MITT NSTEMI,19 (0.5)
same,Angiographic complications (site reported): Acute stent thrombosis,MITT NSTEMI,5 (0.1)
same,Angiographic complications (site reported): Need for urgent CABG,MITT NSTEMI,6 (0.2)
same,Angiographic complications (site reported): New thrombus or suspected thrombus,MITT NSTEMI,16 (0.4)
same,Angiographic complications (site reported): Threatened abrupt closure,MITT NSTEMI,10 (0.3)
same,Angiographic complications (site reported): Unsuccessful procedure,MITT NSTEMI,92 (2.4)
same,Angiographic complications (site reported): Abrupt vessel closure,Safety population,22 (0.5)
same,Angiographic complications (site reported): Acute stent thrombosis,Safety population,5 (0.1)
same,Angiographic complications (site reported): Need for urgent CABG,Safety population,6 (0.1)
same,Angiographic complications (site reported): New thrombus or suspected thrombus,Safety population,22 (0.5)
same,Angiographic complications (site reported): Threatened abrupt closure,Safety population,12 (0.3)
same,Angiographic complications (site reported): Unsuccessful procedure,Safety population,103 (2.4)
